The record followed here is US6482849B1, “Inhibitors of α4β1 mediated cell adhesion” (Tanabe Seiyaku Co., Ltd., priority 1997, dated 2002).

Molecules are shown by their SMILES.

The target of data set [1] is T1, α4β1 integrin (Jurkat cell adhesion to immobilized CS-1 derived peptide CLHPGEILDVPST) (Homo sapiens, UniProt P05556+P13612).
T1 construct: 100 μl of Jurkat cells (2.5×10^6 cells/ml) in DMEM plus BSA; endogenous in cells; host or cells: Jurkat T-cell line
Put plainly: Jurkat-CS-1 Assay. Type of data set: cell-based. The following applies: Jurkat cells on CS-1 peptide coated plates. In a few lines:
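CS-1 peptide was SPDP-crosslinked onto HSA-coated plates and blocked with BSA. Jurkat cells (2.5×10^6 cells/ml) in DMEM/BSA were mixed with compound, generally at 100, 20, 5 and 1.25 μM, and allowed to adhere for 1 hr at 37° C. Bound cells were fixed, stained with toluidine blue and quantified by OD590.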

Data set [2] concerns the target T2, α4β1 integrin (Jurkat T-cell adhesion to IL-1 stimulated endothelial cell monolayers) (Homo sapiens, UniProt P05556+P13612).
T2 construct: a T-cell line, Jurkat, known to express the α4β1 integrin; host or cells: Jurkat T-cell line
Put plainly: Jurkat-Endothelial Cell Adhesion Assay (Jurkat EC). In kind it is cell-based. The following applies: Jurkat cells on IL-1 stimulated HUVEC monolayers. In a few lines: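 BCECF-loaded Jurkat cells (5×10^5) mixed with compound (generally 100, 20, 5 and 1.25 μM) and added to HUVEC monolayers prestimulated 4 hr with 0.1 ng/ml IL-1, in DMEM-HSA. After 5 min on ice and 20 min at 37° C, washed; fluorescence gives % adhesion relative to no-compound control set at 100%.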

T2 sequence (P13612 34-1032): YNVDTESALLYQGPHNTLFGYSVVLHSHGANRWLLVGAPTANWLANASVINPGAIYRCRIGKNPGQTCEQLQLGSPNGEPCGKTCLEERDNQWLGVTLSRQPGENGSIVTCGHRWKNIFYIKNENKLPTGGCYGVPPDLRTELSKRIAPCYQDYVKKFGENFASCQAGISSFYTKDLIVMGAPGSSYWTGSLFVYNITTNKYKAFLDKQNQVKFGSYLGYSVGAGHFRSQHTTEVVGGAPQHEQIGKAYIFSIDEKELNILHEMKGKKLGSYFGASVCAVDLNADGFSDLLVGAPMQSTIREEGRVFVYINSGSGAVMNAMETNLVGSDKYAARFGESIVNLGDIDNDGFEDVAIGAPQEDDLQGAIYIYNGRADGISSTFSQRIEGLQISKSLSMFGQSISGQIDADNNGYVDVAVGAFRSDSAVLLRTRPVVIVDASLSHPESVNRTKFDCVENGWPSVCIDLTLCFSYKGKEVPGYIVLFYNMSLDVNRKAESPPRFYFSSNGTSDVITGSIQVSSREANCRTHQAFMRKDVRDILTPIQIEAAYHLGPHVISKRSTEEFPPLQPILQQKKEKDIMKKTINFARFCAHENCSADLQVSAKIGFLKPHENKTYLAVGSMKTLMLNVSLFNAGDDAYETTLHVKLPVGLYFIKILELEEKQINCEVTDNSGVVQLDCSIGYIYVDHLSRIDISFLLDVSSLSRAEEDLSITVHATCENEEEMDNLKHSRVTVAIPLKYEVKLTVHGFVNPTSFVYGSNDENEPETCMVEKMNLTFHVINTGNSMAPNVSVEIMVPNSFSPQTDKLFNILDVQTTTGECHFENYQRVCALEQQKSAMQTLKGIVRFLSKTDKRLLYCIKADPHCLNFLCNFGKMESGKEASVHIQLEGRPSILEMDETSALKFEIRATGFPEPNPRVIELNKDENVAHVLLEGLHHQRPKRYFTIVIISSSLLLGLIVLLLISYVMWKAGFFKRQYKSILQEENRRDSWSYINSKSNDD
T2 sequence (P05556 21-798): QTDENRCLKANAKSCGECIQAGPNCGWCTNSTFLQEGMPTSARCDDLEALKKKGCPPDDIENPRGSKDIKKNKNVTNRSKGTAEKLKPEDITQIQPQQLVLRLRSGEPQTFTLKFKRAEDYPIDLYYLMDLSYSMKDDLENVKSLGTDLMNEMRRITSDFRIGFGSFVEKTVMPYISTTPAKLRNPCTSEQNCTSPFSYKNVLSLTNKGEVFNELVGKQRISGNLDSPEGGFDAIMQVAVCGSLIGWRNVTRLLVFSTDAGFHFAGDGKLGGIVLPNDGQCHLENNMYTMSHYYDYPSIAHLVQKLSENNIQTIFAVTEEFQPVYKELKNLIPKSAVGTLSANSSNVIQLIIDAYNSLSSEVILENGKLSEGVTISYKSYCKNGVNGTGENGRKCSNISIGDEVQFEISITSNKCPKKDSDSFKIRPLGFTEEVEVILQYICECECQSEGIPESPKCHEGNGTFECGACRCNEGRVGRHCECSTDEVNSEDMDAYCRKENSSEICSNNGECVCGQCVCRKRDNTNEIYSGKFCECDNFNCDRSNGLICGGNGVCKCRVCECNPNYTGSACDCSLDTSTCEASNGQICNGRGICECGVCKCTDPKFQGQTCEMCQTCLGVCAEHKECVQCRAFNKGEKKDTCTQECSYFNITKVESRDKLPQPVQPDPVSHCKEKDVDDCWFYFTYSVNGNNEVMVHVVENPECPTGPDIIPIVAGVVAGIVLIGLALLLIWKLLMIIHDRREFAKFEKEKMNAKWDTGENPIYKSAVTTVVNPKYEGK
T1 sequence (P13612 34-1032): as the sequence (P13612 34-1032) above
T1 sequence (P05556 21-798): as the sequence (P05556 21-798) above

Molecule `CC1(C)[C@@H](C(=O)N[C@@H](Cc2ccc(NC(=O)c3ccccc3Cl)cc2)C(=O)O)CC[C@@]1(C)C(=O)O` [Example 120] gave a melting point of 143 to 145 °C. Also, in data set [1], the IC50 was 80 to 500 nM. The molecule further returned an IC50 in data set [2] of 800 to 5000 nM.
The matching figures for `Cc1cccc(Cl)c1C(=O)Nc1ccc(C[C@H](NC(=O)[C@H]2CC[C@@](C)(C(=O)O)C2(C)C)C(=O)O)cc1` [Example 106]: 165 to 168 °C, at most 80 nM and at most 800 nM.
Molecule `CC1(C)[C@@H](C(=O)N[C@@H](Cc2ccc(NC(=O)c3ccccc3F)cc2)C(=O)O)CC[C@@]1(C)C(=O)O` [Example 132] registered a melting point of 117 to 120 °C. Besides, the IC50 in data set [1] was 80 to 500 nM. This molecule also gave a concentration for half-maximal inhibition (IC50) in data set [2] of 800 to 5000 nM.
For the molecule `CC1(C)[C@@H](C(=O)N[C@@H](Cc2ccc(NC(=O)c3ccccc3I)cc2)C(=O)O)CC[C@@]1(C)C(=O)O` [Example 110], the melting point was in the range of 162 to 165 °C. Further, the IC50 in data set [1] was at most 80 nM. In data set [2], the IC50 was at most 800 nM.
With `CC1(C)[C@@H](C(=O)N[C@@H](Cc2ccc(NC(=O)c3ccc(Cl)c(Cl)c3)cc2)C(=O)O)CC[C@@]1(C)C(=O)O` [Example 114], the melting point lay in the range of 155 to 157 °C. The IC50 in data set [1] lay within 80 to 500 nM. In data set [2], this molecule had an IC50 of at most 800 nM.
The molecule `Cc1cccc(C)c1C(=O)Nc1ccc(C[C@H](NC(=O)[C@H]2CC[C@@](C)(C(=O)O)C2(C)C)C(=O)O)cc1` [Example 81] yielded a melting point of 195 to 198 °C. Besides, the IC50 in data set [1] fell in the range of 80 to 500 nM. In data set [2], the IC50 was at most 800 nM.
The molecule `CC1(C)[C@@H](C(=O)N[C@@H](Cc2ccc(NC(=O)c3cc(Cl)ccc3Cl)cc2)C(=O)O)CC[C@@]1(C)C(=O)O` [Example 87] returned a melting point of 155 to 158 °C. The concentration for half-maximal inhibition (IC50) in data set [1] is at most 80 nM. In data set [2], this molecule gave an IC50 of at most 800 nM.
In turn, `CC1(C)[C@@H](C(=O)N[C@@H](Cc2ccc(NC(=O)C3Cc4ccccc4CN3)cc2)C(=O)O)CC[C@@]1(C)C(=O)O` (stereo partly drawn) [Example 146] had a melting point of 208 to 211 °C. This molecule also yielded a half-inhibitory concentration (IC50) in data set [1] of 80 to 500 nM. In addition, the IC50 in data set [2] lay in the range of 800 to 5000 nM.
Regarding `CC1(C)[C@@H](C(=O)N[C@@H](Cc2ccc(NC(=O)c3cccc4c3Cc3ccccc3-4)cc2)C(=O)O)CC[C@@]1(C)C(=O)O` [Example 136], the melting point was in the range of 160 to 163 °C. For the same molecule, the IC50 in data set [1] was in the range of 500 to 1000 nM. The molecule further displayed an IC50 in data set [2] of 5000 to 10000 nM.
With `CC1(C)[C@@H](C(=O)N[C@@H](Cc2ccc(NC(=O)c3ccc(-c4ccccc4)cc3)cc2)C(=O)O)CC[C@@]1(C)C(=O)O` [Example 116], the melting point lay within 162 to 165 °C. The IC50 in data set [1] is at most 80 nM. The molecule further gave an IC50 in data set [2] of at most 800 nM.
The molecule `CC1(C)[C@@H](C(=O)N[C@@H](Cc2ccc(NC(=O)c3cccc(C(=O)c4ccccc4)c3)cc2)C(=O)O)CC[C@@]1(C)C(=O)O` [Example 89] yielded a melting point of 190 to 193 °C. In addition, the IC50 in data set [1] lay in the range of 80 to 500 nM. The same molecule showed an IC50 in data set [2] of 800 to 5000 nM.
As for `CC(C)COC(=O)Nc1ccc(C[C@H](NC(=O)[C@H]2CC[C@@](C)(C(=O)O)C2(C)C)C(=O)O)cc1` [Example 141], the melting point was 125 to 128 °C. Moreover, the half-maximal inhibitory concentration (IC50) in data set [1] lay within 500 to 1000 nM. Also, the half-inhibitory concentration (IC50) in data set [2] was in the range of 800 to 5000 nM.
Take `CC1(C)[C@@H](C(=O)N[C@@H](Cc2ccc(NC(=O)c3ccccc3C(F)(F)F)cc2)C(=O)O)CC[C@@]1(C)C(=O)O` [Example 108]: the melting point lay in the range of 180 to 183 °C. The molecule also displayed a half-maximal inhibitory concentration (IC50) in data set [1] of at most 80 nM. For the same molecule, the IC50 in data set [2] is at most 800 nM.
`CC1(C)[C@@H](C(=O)N[C@@H](Cc2ccc(NC(=O)c3ccc(Cl)cc3)cc2)C(=O)O)CC[C@@]1(C)C(=O)O` [Example 128] showed a melting point of 185 to 188 °C. Moreover, in data set [1], the half-inhibitory concentration (IC50) was 80 to 500 nM. This molecule registered an IC50 in data set [2] of 800 to 5000 nM.
`Cc1ccc(S(=O)(=O)Nc2ccc(C[C@H](NC(=O)[C@H]3CC[C@@](C)(C(=O)O)C3(C)C)C(=O)O)cc2)cc1` [Example 150]: the melting point lay in the range of 220 to 223 °C. In data set [1], the IC50 lay within 500 to 1000 nM. The IC50 in data set [2] fell in the range of 800 to 5000 nM.
The matching figures for `CC1(C)[C@@H](C(=O)N[C@@H](Cc2ccc(NC(=O)c3ccccc3N)cc2)C(=O)O)CC[C@@]1(C)C(=O)O` [Example 144]: 195 to 198 °C, 80 to 500 nM and 800 to 5000 nM.
For the molecule `CC1(C)[C@@H](C(=O)N[C@@H](Cc2ccc(OCC3CCCCC3)cc2)C(=O)O)CC[C@@]1(C)C(=O)O` [Example 13], the melting point is 102 to 105 °C. In data set [1], this molecule gave a half-inhibitory concentration (IC50) of 500 to 1000 nM. Also, the IC50 in data set [2] is 5000 to 10000 nM.
The molecule `CC1(C)[C@@H](C(=O)N[C@@H](Cc2ccc(NC(=O)c3cc(Br)ccc3Br)cc2)C(=O)O)CC[C@@]1(C)C(=O)O` [Example 97] showed a melting point of 170 to 173 °C. The concentration for half-maximal inhibition (IC50) in data set [1] is at most 80 nM. This molecule also registered an IC50 in data set [2] of at most 800 nM.
With `CC1(C)[C@@H](C(=O)N[C@@H](Cc2ccc(NCc3c(Cl)cccc3Cl)cc2)C(=O)O)CC[C@@]1(C)C(=O)O` [Example 152], the melting point lay in the range of 100 to 103 °C. Besides, in data set [1], the IC50 is at most 80 nM. The molecule further showed an IC50 in data set [2] of at most 800 nM.
With `CC1(C)[C@@H](C(=O)N[C@@H](Cc2ccc(NC(=O)Cc3ccccc3)cc2)C(=O)O)CC[C@@]1(C)C(=O)O` [Example 121], the melting point was 240 to 242 °C. Besides, the 50% inhibitory concentration (IC50) in data set [1] was in the range of 500 to 1000 nM. In data set [2], this molecule yielded an IC50 of 800 to 5000 nM.
Regarding `CC1(C)[C@@H](C(=O)N[C@@H](Cc2cn(Cc3ccccc3)cn2)C(=O)O)CC[C@@]1(C)C(=O)O` [Example 29], the melting point is 258 to 259 °C (dec.). In addition, in data set [1], the IC50 was 500 to 1000 nM. For the same molecule, the 50% inhibitory concentration (IC50) in data set [2] is 5000 to 10000 nM.
In the case of `Cc1ccccc1C(=O)Nc1ccc(C[C@H](NC(=O)[C@H]2CC[C@@](C)(C(=O)O)C2(C)C)C(=O)O)cc1` [Example 142], the melting point lay in the range of 152 to 155 °C. In data set [1], the concentration for half-maximal inhibition (IC50) lay within 80 to 500 nM. Further, the IC50 in data set [2] lay in the range of 800 to 5000 nM.
Molecule `CC1(C)[C@@H](C(=O)N[C@@H](Cc2ccc(OCc3c(Cl)cccc3Cl)cc2)C(=O)O)CC[C@@]1(C)C(N)=O` [Example 155, (1S-cis)-N-[[3-(Aminocarbonyl)-2,2,3-trimethylcyclopentyl]carbonyl]-O-[(2,6-dichlorophenyl)methyl]-L-tyrosine] gave a melting point of 102 to 104 °C. For the same molecule, the half-maximal inhibitory concentration (IC50) in data set [1] lay within 500 to 1000 nM. The molecule further came in with an IC50 in data set [2] of 5000 to 10000 nM.
On to `CC1(C)[C@@H](C(=O)N[C@@H](Cc2ccc(O)c(NC(=O)c3c(Cl)cccc3Cl)c2)C(=O)O)CC[C@@]1(C)C(=O)O` [Example 61], for which the melting point lay within 168 to 171 °C. In data set [1], this molecule had an IC50 of 80 to 500 nM. Further, in data set [2], the concentration for half-maximal inhibition (IC50) fell in the range of 800 to 5000 nM.
Consider `CC1(C)[C@@H](C(=O)N[C@@H](Cc2ccc(NC(=O)c3cccnc3Cl)cc2)C(=O)O)CC[C@@]1(C)C(=O)O` [Example 208, (1S-cis)-N-[(3-Carboxy-2,2,3-trimethylcyclopentyl)carbonyl]-4-[[(2-chloro-3-pyridinyl)carbonyl]amino]-L-phenylalanine], for which the melting point lay in the range of 172 to 174 °C. This molecule returned an IC50 in data set [1] of 80 to 500 nM. This molecule registered an IC50 in data set [2] of at most 800 nM.
Molecule `COc1nc(Cl)ccc1C(=O)Nc1ccc(C[C@H](NC(=O)[C@H]2CC[C@@](C)(C(=O)O)C2(C)C)C(=O)O)cc1` [Example 210, (1S-cis)-N-[(3-Carboxy-2,2,3-trimethylcyclopentyl)carbonyl]-4-[[(2-methoxy-6-chloropyridin-3-yl)carbonyl]-amino]-L-phenylalanine] yielded a melting point of 128 to 131 °C. The molecule further gave an IC50 in data set [1] of at most 80 nM. The molecule further came in with a half-maximal inhibitory concentration (IC50) in data set [2] of at most 800 nM.
On the same counts, the results for `CC1(C)[C@@H](C(=O)N[C@@H](Cc2ccc(NC(=O)c3ccco3)cc2)C(=O)O)CC[C@@]1(C)C(=O)O` [Example 130] are 158 to 161 °C, 80 to 500 nM and 800 to 5000 nM.
On the same counts, the results for `CC1(C)[C@@H](C(=O)N[C@@H](Cc2ccc(NC(=O)c3ccc(Cl)nc3Cl)cc2)C(=O)O)CC[C@@]1(C)C(=O)O` [Example 209, (1S-cis)-N-[(3-Carboxy-2,2,3-trimethylcyclopentyl)carbonyl]-4-[[(2,6-dichloro-3-pyridinyl)carbonyl]amino]-L-phenylalanine] are 246 to 247 °C, at most 80 nM and at most 800 nM.
Regarding `CC1(C)[C@@H](C(=O)N[C@@H](Cc2ccc(NC(=O)c3cccc([N+](=O)[O-])c3)cc2)C(=O)O)CC[C@@]1(C)C(=O)O` [Example 91], the melting point was 146 to 149 °C. Moreover, the IC50 in data set [1] was at most 80 nM. Further, in data set [2], the IC50 lay in the range of 800 to 5000 nM.
On to `CC1(C)[C@@H](C(=O)N[C@@H](Cc2ccc(NC(=O)c3ccccn3)cc2)C(=O)O)CC[C@@]1(C)C(=O)O` [Example 77], for which the melting point was in the range of 102 to 104 °C. The half-maximal inhibitory concentration (IC50) in data set [1] lay within 80 to 500 nM. The IC50 in data set [2] was in the range of 800 to 5000 nM.
For `CC1(C)[C@@H](C(=O)N[C@@H](Cc2ccc(NC(=O)c3ccccc3Br)cc2)C(=O)O)CC[C@@]1(C)C(=O)O` [Example 112], the melting point is 156 to 158 °C. In data set [1], this molecule showed an IC50 of at most 80 nM. In addition, the IC50 in data set [2] is at most 800 nM.
Turning to `COc1ccccc1C(=O)Nc1ccc(C[C@H](NC(=O)[C@H]2CC[C@@](C)(C(=O)O)C2(C)C)C(=O)O)cc1` [Example 95], the melting point lay in the range of 140 to 143 °C. Besides, in data set [1], the 50% inhibitory concentration (IC50) is 80 to 500 nM. Besides, the 50% inhibitory concentration (IC50) in data set [2] was 800 to 5000 nM.

The term IC50 denotes the concentration that gives 50% inhibition. Usually melting point stands for the temperature, or range, at which the solid turns liquid.
